Laboratory results taken from patent US20110300199A1, “PEPTIDES USED IN THE TREATMENT AND/OR CARE OF THE SKIN, MUCOUS MEMBRANES AND/OR SCALP AND THEIR USE IN COSMETIC OR PHARMACEUTICAL COMPOSITIONS” (LIPOTEC, S.A., priority 2009, published 2011).
Non-standard residues stand in square brackets, D forms with d. Phg = N[C@H](C(=O)O)c1ccccc1

What follows are substances tested on Human dermal fibroblasts (assay: Collagen synthesis stimulation assay (secreted Collagen Type I by ELISA)). Details: peptides at 15 μg/ml, 48 h, medium analysed by ELISA; normalized to vehicle negative control.
Format: cell-based
Experimental: Human dermal fibroblasts were grown until confluence in MI06 medium supplemented with specific growth factors for fibroblasts. Then, they were strypsinized and seeded at 5×10^4 cells/well in 24-well plates. After 24 h of incubation at 37° C. in 5% CO2 atmosphere, fresh medium was added with scalar dilutions of the peptides at 15 μg/ml or with vehicle as negative control. Cells were incubated for 48 additional hours, after which medium was collected.
The analysis of the amount of secreted Collagen Type I was performed by means of an ELISA assay. Briefly, 96-well plated were coated with 50 μL per well of the previously collected medium and allowed to adsorb overnight at 4° C. in a humidified atmosphere. Then the plates were washed 3 times with PBS (+0.05% Tween-20) and blocked for 1 h with 3% BSA. After blocking, the plates were treated with an anti-Collagen Type I antibody (1:1000 in PBS, 0.05% Tween-20, 1% BSA) for 2 h. After this incubation, the secondary antibody (goat anti-mouse IgG-HRP antibody, Molecular Probes, 1:1000 in PBS, 0.05% Tween-20, 1% BSA) was added. Plates were incubated with […] substrate for 30 min and the reaction was stopped by adding 3 M H2SO4. Absorbance at 490 nm was read using a microplate reader and collagen concentration determined using a linear regression standard curve for Collagen Type I. Values were normalized in respect to the collagen values for the negative control experiment and the increase in the Collagen Type I was calculated for all the treatments.

| Substance | Increase of Collagen Type I by treatment with the peptides [%] |
| --- | --- |
| H-L-Arg-Phg-L-Trp-Phg-OH | 99 |
| H-L-Arg-Phg-L-Val-Gly-OH | 16 |
| H-L-Arg-Phg-L-Val-Phg-OH | 18 |

The substances below were run against T1, Human neutrophil elastase (Homo sapiens, UniProt P08246) (assay: Human elastase inhibition assay (fluorogenic substrate MeOSuc-Ala-Ala-Pro-Val aminomethyl coumarin)). Details: 0.2 μg/ml protease, peptides 0.05-2 mM, 1 hour preincubation, substrate 25 μg/mL, 2 h; read-out: IC50 (minimum inhibitory concentration of peptides against human elastase).
T1 sequence (P08246 30-267): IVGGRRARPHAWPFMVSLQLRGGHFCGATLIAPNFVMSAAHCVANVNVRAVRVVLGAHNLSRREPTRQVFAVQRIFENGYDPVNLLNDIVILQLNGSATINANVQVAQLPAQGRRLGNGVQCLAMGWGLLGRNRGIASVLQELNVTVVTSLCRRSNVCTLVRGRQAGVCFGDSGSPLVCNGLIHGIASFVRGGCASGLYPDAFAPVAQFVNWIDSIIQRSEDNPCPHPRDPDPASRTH
Format: biochemical
Experimental: Human neutrophil elastase was reconstituted at 5 μg/mL in 50 mM sodium acetate, 200 mm NaCl, pH 5.5 buffer. 0.2 μg/ml of protease were preincubated with the peptides at a final concentration of 0.05-2 mM in a black microplate with 96 wells for 1 hour at room temperature. After preincubation, 25 μg/mL of substrate (MeOSuc-Ala-Ala-Pro-Val aminomethyl coumarin) were added to the wells and the samples were incubated for 2 h at room temperature and protected from light. The fluorescence released by digestion of the substrate was measured with an automated multiplate fluorescence reader, exciting at 370 nm and reading at 460 nm.
The results were corrected from the baseline fluorescence value in the absence of elastase and product, and were normalized with respect to the fluorescence of the control, and the minimum inhibitory concentration for each of the peptides was determined.

| Substance | IC50 [µM] |
| --- | --- |
| H-L-Arg-Phg-L-Trp-Phg-OH | 103 |
| H-L-Arg-Phg-L-Val-Gly-OH | 407 |
| H-L-Arg-Phg-L-Val-Phg-OH | 94 |

These substances were tested against T2, elastase (Sus scrofa, UniProt P00772) (assay: Elastase inhibition assay (EnzChek Elastase Assay Kit, DQ Elastin substrate)). Details: peptides at 0.1 mM, pre-incubated 1 hour with 0.4 unit/mL elastase; DQ Elastin 25 μg/mL, 2 h; normalized to baseline.
T2 construct: purchased Molecular Probes
T2 sequence (P00772 27-266): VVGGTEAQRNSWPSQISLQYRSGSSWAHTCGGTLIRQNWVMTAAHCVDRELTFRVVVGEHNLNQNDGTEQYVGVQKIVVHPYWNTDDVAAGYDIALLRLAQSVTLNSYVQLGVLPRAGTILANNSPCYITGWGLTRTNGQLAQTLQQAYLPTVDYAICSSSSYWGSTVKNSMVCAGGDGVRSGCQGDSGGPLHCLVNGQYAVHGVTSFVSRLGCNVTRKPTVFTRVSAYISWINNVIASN
Format: biochemical
Experimental: The peptides were resuspended in water in the presence of 0.5% DMSO. The assay was conducted on black microplates with 96 wells using the EnzChek® Elastase Assay Kit (Molecular Probes). For this purpose, the peptides were pre-incubated at 0.1 mM for 1 hour with 0.4 unit/mL of elastase at room temperature with moderate stirring, after which the conjugated substrate was added to fluorescein (DQ™ Elastin) at a final concentration of 25 μg/mL and reactions were incubated for 2 h at room temperature with stirring and protected from light. The substrate, whose fluorescence is inhibited, is digested by elastase to release fluorescent fragments which are monitored by fluorescence with a FLUOstar galaxy reader (BMG LabTechnologies) using 485 nm filters for excitation and 530 nm filters for emission.
Inhibition values were normalized with respect to baseline values of average inhibition.

| Substance | Elastase inhibition percentage (% inhibition) [%] |
| --- | --- |
| Ac-L-Arg-Phg-L-Trp-Phg-NH—(CH2)15—CH3 | 53.7 |
| Ac-L-Arg-Phg-L-Trp-Phg-OH | 90.3 |
| Ac-L-Arg-Phg-L-Val-Phg-OH | 82.3 |
| Ac-L-Nle-Phg-L-Trp-Gly-OH | 69.6 |
| Ac-L-Nle-Phg-L-Trp-Phg-OH | 90.0 |
| Ac-L-Nle-Phg-L-Val-Gly-OH | 62.7 |
| Ac-L-Nle-Phg-L-Val-Phg-OH | 73.8 |
| Ac-Phg-L-Trp-Phg-OH | 45.1 |
| Ac-Phg-Phg-L-Trp-Gly-OH | 65.0 |
| Ac-Phg-Phg-L-Trp-Phg-OH | 84.2 |
| Ac-Phg-Phg-L-Val-Phg-OH | 76.1 |
| Ac-R[Phg]VG-OH | 81.4 |
| Ac-R[Phg]WG-OH | 66.9 |
| Ac-[Phg][Phg]VG-OH | 64.2 |
| Palm-L-Arg-Phg-L-Trp-Phg-NH2 | 57.1 |
